From patent US20220411439A1, “POLYMORPHS OF A MACROCYCLIC KINASE INHIBITOR” (TURNING POINT THERAPEUTICS, INC., priority 2019, published 2022)
Like-named read-outs stand apart in the source and are kept apart here.

Target: T1, Ba/F3 KIF5B-RET (Homo sapiens, UniProt P07949, cells depend on it, form not given)
T1 construct: IC50 (nM); other: Experiment 1; other: Experiment 2; fused on or other part: P33176 (Kinesin-1 heavy chain)
Test: Compound I anti-cell proliferation comparison (FIG. 5A, 5B)
Format: cell-based
Settings: for GI50: read-out: IC50 (the source's name)
Excerpt: The KIF5B-RET gene was synthesized at GenScript and cloned into pCDH-CMV-MCS-EF1-Puro plasmid (System Biosciences, Inc). KIF5B-RET point mutation V804M and G810C were generated at GenScript by PCR and confirmed by sequencing. Ba/F3-KIF5B-RET wild type and mutant were generated by transducing Ba/F3 cells with lentivirus containing KIF5B-RET wide type or mutant. Stable cell lines were selected by puromycin treatment, followed by IL-3 withdrawal. Briefly, 5×10^6 Ba/F3 cells were transduced with lentivirus supernatant in the presence of 8 μg/mL protamine sulfate. The transduced cells were subsequently selected with 1 μg/mL puromycin in the presence of IL3-containing medium RPMI1640, plus 10% FBS. After 10-12 days of selection, the surviving cells were further selected for […] independent growth.
Two thousand cells per well were seeded in 384 well white plate for 24 hrs, and then treated with compounds for 72 hours (37° C., 5% CO2). Cell proliferation was measured using CellTiter-Glo luciferase-based ATP detection assay (Promega) following the manufactures's protocol. IC50 determinations were performed using GraphPad Prism software (GraphPad, Inc., San Diego, Calif.).

T1 sequence (P07949 whole entry G810C, form open, the tested form may be a part): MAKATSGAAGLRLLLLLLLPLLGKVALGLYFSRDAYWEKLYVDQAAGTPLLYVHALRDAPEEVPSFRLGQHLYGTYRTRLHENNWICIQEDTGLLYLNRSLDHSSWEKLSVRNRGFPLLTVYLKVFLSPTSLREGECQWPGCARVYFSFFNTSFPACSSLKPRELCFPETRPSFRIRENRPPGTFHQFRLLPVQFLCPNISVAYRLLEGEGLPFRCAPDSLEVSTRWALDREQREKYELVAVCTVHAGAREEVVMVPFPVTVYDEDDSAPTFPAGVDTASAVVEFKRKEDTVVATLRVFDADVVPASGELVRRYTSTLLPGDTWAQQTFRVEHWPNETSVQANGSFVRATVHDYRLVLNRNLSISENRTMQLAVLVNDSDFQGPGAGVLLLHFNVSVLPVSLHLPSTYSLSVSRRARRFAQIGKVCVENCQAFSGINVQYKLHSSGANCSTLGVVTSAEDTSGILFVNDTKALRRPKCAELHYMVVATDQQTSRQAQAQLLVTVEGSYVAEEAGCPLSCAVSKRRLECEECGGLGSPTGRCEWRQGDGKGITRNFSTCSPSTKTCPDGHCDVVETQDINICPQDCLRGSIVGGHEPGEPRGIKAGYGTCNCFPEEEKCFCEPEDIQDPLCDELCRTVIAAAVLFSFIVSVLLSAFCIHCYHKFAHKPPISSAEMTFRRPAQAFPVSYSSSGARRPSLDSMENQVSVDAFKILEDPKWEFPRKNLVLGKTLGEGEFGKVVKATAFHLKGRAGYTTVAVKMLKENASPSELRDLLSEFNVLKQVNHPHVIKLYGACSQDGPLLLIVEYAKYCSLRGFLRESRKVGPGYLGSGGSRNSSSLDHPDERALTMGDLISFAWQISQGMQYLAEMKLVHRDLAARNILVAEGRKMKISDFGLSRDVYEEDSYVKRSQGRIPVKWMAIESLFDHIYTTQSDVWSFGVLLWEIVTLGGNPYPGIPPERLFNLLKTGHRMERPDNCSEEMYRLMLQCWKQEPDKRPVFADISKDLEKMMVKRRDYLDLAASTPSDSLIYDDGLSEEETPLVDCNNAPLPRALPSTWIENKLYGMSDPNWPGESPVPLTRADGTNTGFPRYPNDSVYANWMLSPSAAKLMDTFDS

SMILES: COc1ccc(CN2C3CC2CN(c2ccc(-c4cc(OCC(C)(C)O)cn5ncc(C#N)c45)cn2)C3)cn1 [LOXO-292]
- IC75 (Experiment 1): 1021 nM
- IC90 (Experiment 1): 3450 nM
- GI50 (Experiment 1): 301 nM
- IC75 (Experiment 2): 791.4 nM
- IC90 (Experiment 2): 2370 nM
- GI50 (Experiment 2): 364 nM
